Here are results for 2 compounds from patent EP4650362A1, “NEUROPROTECTIVE PSD-95 POLYPEPTIDE INHIBITOR AND USE THEREOF” (Beijing Tuo Jie Biopharmaceutical Co. Ltd., priority 2023, dated 2024).

Like-named read-outs stand apart in the source and are kept apart here. Non-standard residues stand in square brackets, D forms with d. Residues, ends and D or L forms follow the SMILES beside them. No end group written: not given here. Tle = CC(C)(C)[C@H](N)C(=O)O; Dab = NCC[C@H](N)C(=O)O; Aib = CC(C)(N)C(=O)O

One data set relates to human whole blood. Put plainly: hemolysis risk test in human whole blood. Type of data set: cell-based. The following applies: for Hemolysis rate (%): Human, 37 °C 1 h; for hemolysis rates: human whole blood, concentration range of 1 to 50 µM. The method, then: This test example assessed whether a polypeptide compound causes hemolytic reactions in rat, rabbit, and human whole blood.
Preparation of red blood cell suspension: 100 µL of fresh whole blood was collected, and 900 µL of 1× PBS solution was then added. The mixture was shaken on a plate shaker at 30 rpm for 5 min and then centrifuged at 1000 g for 5 min, and the supernatant was discarded. The above washing step was repeated until the supernatant no longer appeared red. The suspension was set aside for later use.
Preparation of test polypeptide solutions: An appropriate amount of 1× PBS solution was added to a powdered polypeptide, and the polypeptide was dissolved to form a standard stock solution. […] Meanwhile, blank 1× PBS was used as a negative control, and a 1× PBS solution containing 0.1% Triton X-100 was used as a positive control.
Incubation: A test solution (500 µL) was added to the red blood cell suspension, and then the mixture was well shaken on a plate shaker at 30 rpm for 5 min, incubated at 37 °C for 1 h, and centrifuged at 1000 g for 5 min.
100 µL of the supernatant was transferred to a single well of a microplate. The absorbance at 540 nm was measured using a SpectraMax M5 microplate reader, and data analysis was performed using GraphPad Prism 9. The hemolysis rate (%) was calculated using the formula: (test sample absorbance - negative control absorbance) / (positive control absorbance - negative control absorbance) × 100%. A rate of less than 5% indicates the absence of hemolysis, while a rate of greater than 5% indicates the presence of hemolysis. Table 3. Testing of the hemolysis risk of the polypeptide compound

Data set [1] in a line: pharmacokinetic study of different doses in rats. Type of data set: in vivo, SD rats. The following applies: intravenous bolus injection; for AUC(0-t): blood to 180 min. The method, then:
For example, at high doses, the agent causes symptoms such as tachycardia and blood pressure reduction due to excessive histamine release. Therefore, the pharmacokinetic profile of polypeptide compound 14 was assessed again using three doses: a high dose (3 nmol/g), a medium dose (1 nmol/g), and a low dose (0.3 nmol/g). […] Plasma concentration-time curves were plotted, and the pharmacokinetic parameters were calculated using WinNonlin software. Table 6. Intravenous bolus injection pharmacokinetic parameters in rats (different doses, n = 3)

[2] abbreviates: SD, rat, plasma, 0.3 nmol/g, n = 3.
[3] abbreviates: SD, rat, plasma, 1 nmol/g, n = 3.
Setting [4] is: SD, rat, plasma, 3 nmol/g, n = 3.

On to `CC(C)[C@H](NC(=O)[C@H](CC(=O)O)NC(=O)[C@@H](NC(=O)[C@@H](NC(=O)[C@@H](NC(=O)[C@@H](NC(=O)[C@H](CCN)NC(=O)C(C)(C)NC(=O)CNC(=O)[C@@H](CCCNC(=N)N)NC(=O)[C@@H](CCCNC(=N)N)NC(=O)[C@@H](CCCNC(=N)N)NC(=O)[C@@H](CCC(N)=O)NC(=O)[C@@H](CCCNC(=N)N)NC(=O)[C@@H](CCCNC(=N)N)NC(=O)[C@@H](CCCCN)NC(=O)[C@@H](CCCCN)NC(=O)[C@@H](CCCNC(=N)N)NC(=O)CNC(=O)[C@H](N)Cc1ccc(O)cc1)[C@@H](C)O)C(C)(C)C)C(C)(C)C)[C@@H](C)O)C(=O)O` [Polypeptide compound 14, y-G-r-k-k-r-r-q-r-r-r-G-Aib-Dab-T-Tle-Tle-T-D-V] (H-[dY]G[dR][dK][dK][dR][dR][dQ][dR][dR][dR]G[Aib][Dab]T[Tle][Tle]TDV-OH), for which the “Hemolysis rate (%)” value with human whole blood (1.0 µM) turned out to be 0.09%; in the data set with human whole blood (2.5 µM) it was 0.38%; with human whole blood (5.0 µM), 0.15%; in the data set with human whole blood (10 µM), 0.31%; in the data set with human whole blood (25 µM), 0.08%; with human whole blood (50 µM) it was 0.53%. The hemolysis rates result in the data set on human whole blood was “less than 5%”. The AUC(0-t) (usually exposure summed from dosing to a finite time, without extrapolation to infinity) in data set [1] (SD, rat, plasma, 0.3 nmol/g, n = 3, read-out: AUC(0-t)) was determined as 1230 ng·h/mL; in data set [1] (SD, rat, plasma, 1 nmol/g, n = 3, read-out: AUC(0-t)) it was 5860 ng·h/mL; in data set [1] (SD, rat, plasma, 3 nmol/g, n = 3, read-out: AUC(0-t)), 15000 ng·h/mL. In addition, the results for the AUC(0-inf) in data set [1] (setting [2]), in data set [1] (setting [3]) and in data set [1] (setting [4]) were 1280 ng·h/mL, 6600 ng·h/mL and 17700 ng·h/mL, respectively. Also, the MRT (commonly the average time that molecules of a dose stay in the body) in data set [1] (setting [2]) came out at 51.4 min; in data set [1] (setting [3]) it was 78.4 min; in data set [1] (setting [4]), 88.4 min. Moreover, the half-life (as a rule, the time needed for the level to fall by half in the phase considered) in data set [1] (setting [2]) is 43.4 min; in data set [1] (setting [3]) it was 58 min; in data set [1] (setting [4]), 69.2 min. For the same compound, the Cmax – broadly, the highest concentration seen after dosing – in data set [1] (SD, rat, plasma, 0.3 nmol/g, n = 3, read-out: Cmax) is 1870 ng/mL; in data set [1] (SD, rat, plasma, 1 nmol/g, n = 3, read-out: Cmax) it was 5970 ng/mL; in data set [1] (SD, rat, plasma, 3 nmol/g, n = 3, read-out: Cmax), 18300 ng/mL.

Consider “YGRKKRRQRRRKLSSIESDV [NA-1, YGRKKRRQR RRKLSSIESDV, reference compound]”, for which the “Hemolysis rate (%)” value is on record as -0.52% with human whole blood (1.0 µM); -0.59% in the data set on human whole blood (2.5 µM); -0.49% in the data set with human whole blood (5.0 µM); -0.54% in the data set on human whole blood (10 µM); -0.53% in the data set on human whole blood (25 µM); 0.06% in the data set with human whole blood (50 µM). Also, the hemolysis rates result in the data set with human whole blood is “less than 5%”. This compound also had a half-life in data set [1] (SD, rat, in vivo, 3 nmol/g, n = 3) of 2.1 min. Moreover, the “AUC(0-t)” value in data set [1] (3 nmol/g, n = 3) came to 1149 ng·h/mL. Moreover, the “AUC(inf)” value in data set [1] (3 nmol/g, n = 3) came to 1154 ng·h/mL. In data set [1] (3 nmol/g, n = 3), this compound registered a Cmax of 7188 ng/mL. This compound also showed an MRTO-inf in data set [1] (3 nmol/g, n = 3) of 7.5 min.
